From US11160794B2, “Methods for treating congenital disorders of glycosylation” (Maggie's Pearl, LLC, priority 2018, dated 2021)
Where a name gives a salt, the structure may show the parent alone. One block for each compound: values may come before it.

Experiments:
[1] = test system: Pmm-2 F119L homozygous animals; assay: Chemical stressor exposure of Pmm-2 mutant worms in liquid culture; format: in vivo, nematode (worms); conditions: increasing concentrations
Excerpt: (§1) Because an underlying defect in glycosylation may be manifested when subjected to external chemical stressors, Pmm-2 F119L homozygous animals were subjected to Tunicamycin and Bortezomib drug exposures. Tunicamycin is an inhibitor of N-linked glycosylation and Bortezomib (Bzb) is an irreversible inhibitor of the proteasome. It was contemplated that either or both drugs would affect the Pmm-2 mutants differently compared to wild type (“WT”).

[2] = test system: SEC53 variant (pmm2 mutant) yeast; assay: Yeast growth rescue of SEC53 variant strains (validation of drug screen hits); format: cell-based; conditions: for rescue of growth of SEC53 alleles: haploid and heterozygous diploid cells, dose response; for growth rescue/improvement: maximum dose/effect
Description: All strains used herein are in S288c background. Strains were grown in Synthetic Complete (“SC”) or SC drop out media (Sunrise)+2% dextrose at 30° C. unless otherwise noted. Standard genetic procedures of transformation and tetrad analysis were followed to construct strains. SEC53 rescue plasmid (pPL1) was generated by cloning the SEC53 promoter, open reading frame, and terminator sequences into the episomal pRS316 containing the URA3 selectable marker. SEC53 variants were generated by cloning the relevant promoter, GFP or SEC53 gene, and CYC1 terminator sequences into an integrating plasmid containing the LEU2 selectable marker and integrated at the SwaI restriction site into the HO locus. For PMM2 variants, the SEC53 ORF was replaced with a codon-optimized PMM2. Plasmids were generated by Next Interactions or GenScript. Strains were generated by Next Interactions or well-known techniques.
Cells from plates were resuspended in SC media to OD600=1.0, then serial diluted into 50 μL SC+FOA media in 384-well plates at 10^−1, 10^−2, and 10^−3. Plates were incubated at 30° C. and absorbance reading at […] were measured by a plate reader (Molecular Devices SpectraMax M3) at the indicated time points. Plates were vortexed briefly to resuspend cells prior to plate readings. 5-floroortic acid was purchased from US Biological and used at a concentration of 1 mg/L.
125 nL of compounds or DMSO were dispensed into 384-well plates using the Echo acoustic dispenser (LabCyte) to achieve a final concentration of 25 μM. 50 μL of 10^−2 dilution of an OD600=1.0 or 0.5 yeast cell suspensions were dispensed into the 384-well plates containing compounds or DMSO with a MultiFlo automated dispenser (Biotek). Plates were covered and incubated at 30° C. for 16-21 hours until OD600 reaches ˜0.8. Plates were vortexed briefly to resuspend cells prior to reading.
MicroSource Spectrum compounds were reordered from MicroSource Discovery Systems and resuspended in DMSO. 5-125 nL compounds or DMSO were dispensed into 384-well plates and 50 μL of yeast cell suspensions or media were dispensed by multichannel pipettes to achieve the desired concentration. Plates were covered and incubated at 30° C. for 16-23 hours until OD600 reaches ˜0.8. Plates were vortexed briefly to resuspend cells prior to plate readings.
pACT1-F126L, pSEC53-V238M, and pSEC53-F126L haploids and pACT1-F126L/pACT1-R148H, pSEC53-V238M/pSEC53-R148H, and pSEC53-F126L/pSEC53-R148H heterozygous diploids were advanced to a high-throughput drug screen. Screening was done in a 2,560 compound MicroSource Spectrum library collection consisting of FDA approved drugs, bioactive tool compounds, and natural products. Each strain was screened in duplicate and in 384-well plates, with each plate containing 32 wells of the negative control (no drugs) and 24 wells of the positive controls (wild type cells). […] Additionally, there is good correlation between replicates (correlation >0.4 for all panels). With a Z-score cutoff of 2.0, we initially identified six compounds that may be promising and their ability to rescue growth is conserved between the haploid and diploid strains.
These initial hits were further studied for validation. […] At the maximum dose tested, alpha-cyano-4-hydroxycinnamic acid (Compound 1) rescues the F126L allele by 17.7% in haploid and 24.5% in diploid cells.

PMM2 = PMM2 enzymatic assay on lysates of compound-treated fibroblasts; format: cell-based, human; conditions: for effect on PMM2 enzymatic activity: human fibroblasts GM20942 (F119L/R148H as printed), 10 and 15 μM, 24 and 48 hours; for PMM2 enzyme activity: above described cell models
Description: Cells (WT and PMM2 (GM20942-R141H/F119L) compound heterozygous fibroblasts) were seeded at 45 cells/μL (48 hours) and 60 cells/μL (24 hours) in 96 well plates. Compounds were added while seeding cells. The cells were incubated with the tested compounds for 24 and 48 hours (2 different plates, at 10 and 15 μM). Cells were washed twice with phosphate buffer solution. Cell extracts were prepared by adding 10 μL homogenization buffer (20 mM Hepes, 25 mM KCl, 1 mM dithiothreitol, 10 μg/mL each leupeptin and antipain) into each well. The plate was frozen at −80° C. and thawed (this step was repeated two times). Contents of the well were then transferred to the next well, frozen, and thawed. The previous two steps were repeated again to obtain 3× protein. The plate was centrifuged at 4000 rpm for 10 min. 1 μL of sample was taken for Qubit protein quantification, and assay buffer was added into these wells. The plate was incubated at 37° C., and readings were taken every 30 mins.
PMM2 enzymatic activities were assayed spectrophotometrically at 340 nm by the reduction of NADP+ to NADPH in a reaction mixture incubated at 30° C. for 60 mins in a 96-well plate. Cell lysates were added to 200 μL volume in the following reaction: 50 mM HEPES, pH 7.1, 5 mM MgCl2, 0.5 mM NADP+, 10 μg/mL yeast glucose-6-phosphate dehydrogenase, 20 μM glucose 1,6-bisphosphate, 200 μM mannose 1-phosphate, 10 μg/mL phosphoglucose isomerase, and […]. Glucose 1,6-bisphosphate was used as an activator of PMM2 activity. NADPH formation was calculated from absorbance at 340 nm using the Beer's Law (absorbance=εLc).
A PMM2 enzymatic assay was performed to determine whether the expression level of the variants correlate with the enzymatic activity in the cell. To do this, phosphomannose mutase (PMM) activity was assayed by measuring the reduction of NADP+ to NADPH spectrophotometrically at 340 nm with a plate reader according to methods known in the art. This is achieved by a series of four reactions shown in Scheme 1.
Mannose-1-phosphate and NADP are provided as substrates for the reactions along with phosphomannose isomerase, phosphoglucose isomerase, glucose-6-phosphoate dehydrogenase, and PMM2 from the protein lysate. Additionally, glucose 1,6-bisphosphate is used as an activator of PMM2 activity.
To determine whether these compounds rescue growth by increasing PMM2 enzymatic activity, human fibroblast cells (GM20942) containing the F119L/R148H heterozygous mutations and wild type fibroblast cells were treated with each compound. The cell lysates were subjected to the PMM2 enzymatic reaction.

pmm-2 F125L/F125L worms = assay: Bortezomib-induced growth suppression rescue screen in pmm-2 F125L worms; format: in vivo, nematode (worms); conditions: 25 μM drug, 11 μM Bzb, 5 days; one row per replicate
Excerpt: A F119L point mutation strain, orthologous F125L in worms was created.
as §1
Thus, Bzb-induced growth suppression was used as a means to identify compounds that might rescue the global effects of exacerbated glycosylation deficiency. Using this approach, animals were age-synchronized to obtain L1 larvae. Fifteen L1 larvae were dispensed into wells of a 384-well plate containing 25 μM of drugs (obtained from the MicroSource Spectrum library purchased from MicroSource Discovery Systems) and 11 μM Bzb. Bacterial media at fixed optical density was added to wells to enable worms to grow for a 5 day period. Animals were dispensed using Biosorter, a large particle flow cytometer by Union Biometrica, Mass. At the end of the 5 day period, animals were treated with 15 μls of 8 mM sodium azide (for 55 μls of total assay volume). After 20 minutes, immobilized animals were imaged using a plate imager under transmitted light. A custom image processing script was used to extract the areas occupied by worms/well over a 5 day period. Each plate has positive controls (no Bzb) and negative controls (11 μM Bzb) that was used to determine the z score of test wells per plate. After outlier correction for each plate in each replicate, data from all three replicates was compared. Wells per plate with positive z scores greater than 2 were identified as “hits.” If hits reproduced across all three replicates were then compared. […] At least 13 of the 20 compounds belong to the category of antioxidants; still others fall in the category of catecholamines

[3] = pACT1-F126L/R148H heterozygous diploid cells

Compound: CC(C)C[C@H](NC(=O)[C@H](Cc1ccccc1)NC(=O)c1cnccn1)B(O)O [Bzb, Bortezomib]
growth of Pmm-2 mutants compared to wild type under drug exposure [1]: delayed growth

Compound: Tunicamycin
growth of Pmm-2 mutants compared to wild type under drug exposure [1]: no major differences in growth

Compound: N#C/C(=C\c1ccc(O)cc1)C(=O)O [Compound 1, α-cyano-4-hydroxycinnamic acid]
rescue of growth of SEC53 alleles [2]: consistent and dose-dependent rescues
growth rescue/improvement ([2]; pACT1-F126L haploid cells): 17.7%
growth rescue/improvement [2, 3]: 24.5%
effect on PMM2 enzymatic activity (PMM2): rescues the enzymatic activity

PMM2 enzyme activity (PMM2): increase PMM2 enzyme activity
Compound: CNc1ccccc1C(=O)N1CCc2c([nH]c3ccccc23)C1=O [rhetsinine, Rhetsinine]

Compound: Epalrestat [reference compound]
rescue of yeast growth defect ([2]; above described cell models): rescued yeast growth defect
PMM2 enzyme activity (PMM2): increase PMM2 enzyme activity

Compound: NCCS [cysteamine hydrochloride, reference compound]
rescue of growth of SEC53 alleles [2]: does not rescue at any dose

Compound: Cc1ccc(C(=O)Nc2ccc(S(=O)(=O)O)c3cc(S(=O)(=O)O)cc(S(=O)(=O)O)c23)cc1NC(=O)c1cccc(NC(=O)Nc2cccc(C(=O)Nc3cc(C(=O)Nc4ccc(S(=O)(=O)O)c5cc(S(=O)(=O)O)cc(S(=O)(=O)O)c45)ccc3C)c2)c1 [suramin hexasodium]
growth rescue/improvement ([2]; pACT1-F126L haploid cells): 6.7%
growth rescue/improvement [2, 3]: 22.6%
growth improvement ([2]; pSEC53-F126L haploid cells): 24.5%
growth improvement ([2]; pSEC53-F126L/R148H heterozygous diploid cells): 47.4%
growth improvement ([2]; pSEC53-V238M haploid cells): 16.1%
growth improvement ([2]; pSEC53-V238M/R148H heterozygous diploid cells): 38.9%
effect on PMM2 enzymatic activity (PMM2): no discernible effect

Compound: Cc1ccc(C(=O)Nc2ccc(S(=O)(=O)O)c3cc(S(=O)(=O)O)cc(S(=O)(=O)O)c23)cc1NC(=O)c1cccc(NC(=O)Nc2cccc(C(=O)Nc3cc(C(=O)Nc4ccc(S(=O)(=O)O)c5cc(S(=O)(=O)O)cc(S(=O)(=O)O)c45)ccc3C)c2)c1 [Compound 3, 8-[[4-methyl-3-[[3-[[3-[[2-methyl-5-[(4,6,8-trisulfonaphthalen-1-yl)carbamoyl]phenyl]carbamoyl]phenyl]carbamoylamino]benzoyl]amino]benzoyl]amino]naphth alene-1,3,5-trisulfonic acid]
rescue of growth of SEC53 alleles [2]: consistent and dose-dependent rescues

Compound: COc1cc(OC)c2c(=O)c(O)c(-c3ccc(OC)c(OC)c3)oc2c1 [QUERCETIN 5,7,3,4′-TETRAMETHYL ETHER, quercetin 5,7,3′,4′-tetramethyl ether]
Status (pmm-2 F125L/F125L worms): HIT (Wells per plate with positive z scores greater than 2 were identified as “hits.”)

Compound: CCOc1cccc(C(=O)c2ccc(O)c(O)c2O)c1 [3,4-didesmethyl-5-deshydroxy-3′-ethoxyscleroin]
Status (pmm-2 F125L/F125L worms): HIT (Wells per plate with positive z scores greater than 2 were identified as “hits.”)
